Data as given in patent publication US9045525B2, “Amyloid β-protein-specific production-inhibiting polypeptide” (THE DOSHISHA, priority 2012, dated 2015).
Peptide text beside a SMILES is read from it.

Experiments:
[1] = test system: CHO-K1 cells (7WD10 cells) that stably expressed APP protein; experiment: Aβ protein production inhibition experiment in 7WD10 cells (sAPPβ, βCTF, Aβ); format: cell-based; conditions: polypeptide 1, 5, 10, 20, and 50 μM
Method: (§1) An experiment was conducted wherein #1, #2, and #4 polypeptides were reacted with CHO-K1 cells (7WD10 cells) that stably expressed APP protein and transiently expressed Notch to confirm the production of Aβ protein and cleavage of Notch protein.

[2] = test system: Notch transiently expressed in CHO-K1 cells (7WD10 cells); experiment: Cleavage of Notch protein (NICD) in 7WD10 cells; format: cell-based; conditions: polypeptide 1, 5, 10, 20, and 50 μM
Method: as §1

[3] = test system: Aβ protein in hippocampus; experiment: Aβ protein production inhibition after direct administration in mouse hippocampus; format: in vivo; conditions: C57BL/6 mouse, 0.2 ng/g directly in right-side hippocampus, three hours after administration, relative to rev#4
Method: A #4 polypeptide solution using 50% DMSO as a solvent was administered to a C57BL/6 mouse in an amount of 0.2 ng/g. The solution was directly administered in the right-side hippocampus of the mouse. Three hours after administration, the right-side hippocampus was extracted, and the amount of Aβ protein extracted by TBS and 6M guanidine hydrochloride was measured by using the sandwich ELISA method (product name: human/rat β amyloid (40) ELISA Kit Wako for immunochemistry, product No. 294-62501; product name: human/rat β amyloid (42) ELISA Kit Wako for immunochemistry, product No. 290-62501: both manufactured by Wako Pure Chemical Industries, Ltd.). As a negative control experiment, a polypeptide (rev#4: SEQ ID NO: 19) having the amino acid sequence in inverse order of #4 polypeptide was administered to the left-side hippocampus of the same mouse.
FIG. 9 is a graph showing the Aβ protein extracted from the mouse was quantified. The vertical axis indicates the relative value taking the result of negative control experiment in which rev#4 polypeptide was administered as 100%.

[4] = test system: Neuro 2A cells (N2A); experiment: Mouse Aβ production inhibition experiment, Neuro 2A cells; format: cell-based; conditions: polypeptide 20 μM, Neuro2A cells expressing mouse-type APP, anti-mouse Aβ antibody Western blotting
Method: #1, #2, and #4 polypeptides were added to the culture solutions of CHO-K1 cells and Neuro 2A cells (N2A) in such a manner that the final concentration was 20 μM. As a control, L685458 (i.e., a γ-secretase inhibitor) and DMSO were added thereto in such a manner that the final concentration was 20 μM.
Thereafter, Aβ contained in the cell culture medium was identified by using a Western-blotting method with an antibody (anti-mouse Aβ antibody) that recognizes Aβ. […] In the figure, L indicates L685458, which is a γ-secretase inhibitor (final concentration of 1 μM).

SMILES: CC[C@H](C)[C@H](NC(=O)[C@H](CC(=O)O)NC(=O)[C@@H](NC(=O)[C@@H](NC(=O)[C@H](CS)NC(=O)[C@H](Cc1ccc(O)cc1)NC(=O)[C@H](CS)NC(=O)[C@H](CC(=O)O)NC(=O)[C@H](CS)NC(=O)[C@@H](NC(=O)[C@@H](NC(=O)[C@H](CC(C)C)NC(=O)[C@H](Cc1c[nH]cn1)NC(=O)[C@H](CCSC)NC(C)=O)C(C)C)[C@@H](C)CC)[C@@H](C)O)[C@@H](C)O)C(=O)N[C@@H](CS)C(=O)N[C@@H](Cc1ccc(O)cc1)C(=O)N[C@@H](CS)C(=O)N[C@@H](Cc1ccc(O)cc1)C(=O)N[C@@H](CO)C(=O)N[C@@H](CS)C(=O)N[C@H](C(=O)N1CCC[C@H]1C(=O)N[C@@H](CC(N)=O)C(N)=O)[C@@H](C)O [#4] (Ac-MHLVICDCYCTTDICYCYSCTPN-NH2)
- Aβ protein in the cell culture medium (released Aβ) [1]: decreased depending on the concentration
- Aβ protein in the cell lysate (intracellular Aβ) [1]: no longer present in a manner dependent on the final concentration
- sAPP in the cell lysate [1]: no longer present in a manner dependent on the final concentration
- βCTF (C99) in the cell lysate [1]: no longer present in a manner dependent on the final concentration
- abundance of the NICD in the cell lysate [2]: not decreased
- Aβ protein production in hippocampus (sandwich ELISA) [3]: remarkably inhibited Aβ protein production
- production of Aβ in the culture medium [4]: the production of Aβ in the culture medium was reduced
